Drawing on ChEMBL document CHEMBL1136945, “Antimalarial activity of thiosemicarbazones and purine derived nitriles” (Bioorg Med Chem Lett, 2009), this text covers EC50 for 33 molecules.

Holding throughout (format): functional, organism-based
For assay [1], the system named is Plasmodium falciparum. In words: (§1) Antimalarial activity as reduced parasitaemia after 72 hrs against chloroquine-resistant Plasmodium falciparum K1 infected human O+ erythrocytes by DNA stain without pepstatin. The note with it: K1, 72 h.
For assay [2], the system named is Plasmodium falciparum. In words: Antimalarial activity as reduced parasitaemia after 72 hrs against chloroquine-sensitive Plasmodium falciparum 3D7 infected human O+ erythrocytes by DNA stain without pepstatin. To be noted: 3D7, 72 h.
In assay [3] the test system is Plasmodium falciparum. The description is as §1. To be noted: K1, 72 h. This is another data set of the same source.
Assay [4] has as its system Plasmodium falciparum. In words: Antimalarial activity as reduced parasitaemia after 72 hrs against chloroquine-sensitive Plasmodium falciparum 3D7 infected human O+ erythrocytes by DNA stain with pepstatin. The note with it: 3D7, 72 h.

Consider `CCCC/C(=N\NC(N)=S)c1ccc(Cl)c(Cl)c1`, for which the EC50 in the assay with Plasmodium falciparum [1], in the assay with Plasmodium falciparum [2], in the assay on Plasmodium falciparum [3] and in the assay with Plasmodium falciparum [4] was greater than 30 µM throughout.
On to `Cc1ccc(/C(=N/NC(N)=S)c2ccccc2)cc1`, for which the EC50 in the assay on Plasmodium falciparum [1], with Plasmodium falciparum [2], in the assay with Plasmodium falciparum [3] and with Plasmodium falciparum [4] was greater than 30 µM throughout.
Turning to `Cc1ccc(/C(=N/NC(N)=S)c2cccc(C(F)(F)F)c2)cc1`, the EC50 (usually the concentration giving half of the maximal effect) in the assay on Plasmodium falciparum [1] is greater than 30 µM; in the assay with Plasmodium falciparum [2], greater than 30 µM; in the assay with Plasmodium falciparum [3], greater than 30 µM; in the assay on Plasmodium falciparum [4] it was 30 µM.
As to `CC(O)CN1CNc2c(NCc3ccc(Cl)c(Cl)c3)nc(C#N)nc21` (configuration not stated), the EC50 is greater than 30 µM in the assay on Plasmodium falciparum [1], greater than 30 µM in the assay with Plasmodium falciparum [2], greater than 30 µM in the assay on Plasmodium falciparum [3] and 30 µM in the assay on Plasmodium falciparum [4].
As for `N#Cc1nc(NCc2ccc(Cl)c(Cl)c2)c2c(n1)N(CC(O)CO)CN2` (configuration not stated), the EC50 in the assay on Plasmodium falciparum [1], in the assay on Plasmodium falciparum [2], in the assay on Plasmodium falciparum [3] and in the assay on Plasmodium falciparum [4] was greater than 30 µM throughout.
On to `N#Cc1nc(NCc2ccc(Cl)c(Cl)c2)c2c(n1)N(Cc1ccccc1)CN2`, for which the EC50 in the assay on Plasmodium falciparum [1] was greater than 30 µM; in the assay with Plasmodium falciparum [2], greater than 30 µM; in the assay with Plasmodium falciparum [3], 30 µM; in the assay with Plasmodium falciparum [4], 30 µM.
As to `COCCCN1CNc2c(NCc3ccc(Cl)c(Cl)c3)nc(C#N)nc21`, the half-maximal effective concentration (EC50) is greater than 30 µM in the assay with Plasmodium falciparum [1], greater than 30 µM in the assay on Plasmodium falciparum [2], greater than 30 µM in the assay with Plasmodium falciparum [3] and 30 µM with Plasmodium falciparum [4].
As for `COC(CCN1CNc2c(NCc3ccc(Cl)c(Cl)c3)nc(C#N)nc21)OC`, the EC50 is greater than 30 µM in the assay on Plasmodium falciparum [1], greater than 30 µM in the assay with Plasmodium falciparum [2], greater than 30 µM with Plasmodium falciparum [3] and 30 µM in the assay with Plasmodium falciparum [4].
Turning to `N#Cc1nc(NCc2ccc(Cl)c(Cl)c2)c2c(n1)N(CCCC(=O)O)CN2`, the EC50 in the assay on Plasmodium falciparum [1], in the assay with Plasmodium falciparum [2], in the assay with Plasmodium falciparum [3] and in the assay with Plasmodium falciparum [4] was greater than 30 µM in each case.
On to `N#Cc1nc(NCc2cccc(-c3cc(Cl)cc(Cl)c3)c2)c2ncn(CCCO)c2n1`, for which the EC50 in the assay on Plasmodium falciparum [1], in the assay with Plasmodium falciparum [2], in the assay with Plasmodium falciparum [3] and with Plasmodium falciparum [4] was greater than 30 µM each time.
As for `N#Cc1nc(NCc2cccc(-c3ccc(Cl)c(Cl)c3)c2)c2ncn(CCCO)c2n1`, the EC50 in the assay on Plasmodium falciparum [1], in the assay with Plasmodium falciparum [2], in the assay with Plasmodium falciparum [3] and in the assay on Plasmodium falciparum [4] was greater than 30 µM each time.
Turning to `N#Cc1nc(NCc2ccc(Br)cc2)c2c(n1)N(CCCc1ccccc1)CN2`, the EC50 in the assay with Plasmodium falciparum [1], in the assay on Plasmodium falciparum [2], in the assay with Plasmodium falciparum [3] and in the assay on Plasmodium falciparum [4] was greater than 30 µM throughout.
Consider `CCCCN1CNc2c(NCc3ccc(Cl)c(Cl)c3)nc(C#N)nc21`, for which the EC50 in the assay with Plasmodium falciparum [1] was greater than 30 µM; with Plasmodium falciparum [2], greater than 30 µM; in the assay with Plasmodium falciparum [3], greater than 30 µM; in the assay on Plasmodium falciparum [4], 30 µM.
Take `Cc1cccc(/C(=N/NC(N)=S)c2cccc(F)c2)c1`: the EC50 in the assay with Plasmodium falciparum [1], in the assay on Plasmodium falciparum [2], with Plasmodium falciparum [3] and in the assay on Plasmodium falciparum [4] was greater than 30 µM in each case.
Take `N#Cc1nc(NCc2cccc(Cc3cccc(Cl)c3)c2)c2ncn(CCCO)c2n1`: the EC50 in the assay on Plasmodium falciparum [1], in the assay on Plasmodium falciparum [2], in the assay on Plasmodium falciparum [3] and in the assay on Plasmodium falciparum [4] was greater than 30 µM each time.
Consider `CN(C)c1cccc(-c2cccc(CNc3nc(C#N)nc4c3ncn4CCCO)c2)c1`, for which the EC50 in the assay with Plasmodium falciparum [1], in the assay on Plasmodium falciparum [2], in the assay with Plasmodium falciparum [3] and in the assay with Plasmodium falciparum [4] was greater than 30 µM each time.
`N#Cc1nc(NCc2ccc(-c3cccnc3)cc2)c2ncn(CCCO)c2n1`: the EC50 with Plasmodium falciparum [1], with Plasmodium falciparum [2], in the assay with Plasmodium falciparum [3] and in the assay with Plasmodium falciparum [4] was greater than 30 µM in each case.
With `COC(=O)c1cccc(-c2cccc(CNc3nc(C#N)nc4c3ncn4CCCO)c2)c1`, the EC50 in the assay on Plasmodium falciparum [1], with Plasmodium falciparum [2], with Plasmodium falciparum [3] and in the assay with Plasmodium falciparum [4] was greater than 30 µM throughout.
As to `C=Cc1cccc(-c2cccc(CNc3nc(C#N)nc4c3ncn4CCCO)c2)c1`, the EC50 with Plasmodium falciparum [1], in the assay on Plasmodium falciparum [2], in the assay with Plasmodium falciparum [3] and in the assay on Plasmodium falciparum [4] was greater than 30 µM each time.
Turning to `N#Cc1nc(NCc2cccc(-c3ccc4ccccc4c3)c2)c2ncn(CCCO)c2n1`, the EC50 in the assay with Plasmodium falciparum [1] was greater than 30 µM; in the assay with Plasmodium falciparum [2] it was greater than 30 µM; in the assay on Plasmodium falciparum [3], greater than 30 µM; with Plasmodium falciparum [4], 30 µM.
In the case of `N#Cc1nc(NCc2cccc(-c3ccsc3)c2)c2ncn(CCCO)c2n1`, the EC50 in the assay on Plasmodium falciparum [1], with Plasmodium falciparum [2], in the assay on Plasmodium falciparum [3] and in the assay with Plasmodium falciparum [4] was greater than 30 µM throughout.
On to `N#Cc1nc(NCc2cccc(-c3ccoc3)c2)c2ncn(CCCO)c2n1`, for which the EC50 with Plasmodium falciparum [1], in the assay on Plasmodium falciparum [2], in the assay on Plasmodium falciparum [3] and in the assay on Plasmodium falciparum [4] was greater than 30 µM in each case.
Turning to `CC(C)Oc1c(Br)cccc1-c1cccc(CNc2nc(C#N)nc3c2ncn3CCCO)c1`, the EC50 in the assay with Plasmodium falciparum [1] was greater than 30 µM; in the assay with Plasmodium falciparum [2], 30 µM; with Plasmodium falciparum [3] it was greater than 30 µM; in the assay with Plasmodium falciparum [4], 30 µM.
In the case of `COc1cc(OC)c(-c2cccc(CNc3nc(C#N)nc4c3ncn4CCCO)c2)cn1`, the concentration for a half-maximal effect (EC50) in the assay with Plasmodium falciparum [1], in the assay on Plasmodium falciparum [2], in the assay with Plasmodium falciparum [3] and in the assay with Plasmodium falciparum [4] was greater than 30 µM throughout.
For `N#Cc1nc(NCc2ccc(Cl)c(Cl)c2)c2c(n1)N(CCCO)CN2`, the concentration for a half-maximal effect (EC50) with Plasmodium falciparum [1], with Plasmodium falciparum [2], in the assay with Plasmodium falciparum [3] and in the assay on Plasmodium falciparum [4] was greater than 30 µM in each case.
For the molecule `COCC(CN1CNc2c(NCc3ccc(Cl)c(Cl)c3)nc(C#N)nc21)OC` (configuration not stated), the EC50 is greater than 30 µM with Plasmodium falciparum [1], greater than 30 µM with Plasmodium falciparum [2], greater than 30 µM in the assay with Plasmodium falciparum [3] and 30 µM in the assay on Plasmodium falciparum [4].
Regarding `COc1ccc(-c2cccc(CNc3nc(C#N)nc4c3ncn4CCCO)c2)cc1`, the EC50 in the assay on Plasmodium falciparum [1], with Plasmodium falciparum [2], in the assay on Plasmodium falciparum [3] and in the assay with Plasmodium falciparum [4] was greater than 30 µM throughout.
As to `N#Cc1nc(NCc2cccc(-c3ccccc3)c2)c2ncn(CCCO)c2n1`, the EC50 is greater than 30 µM in the assay with Plasmodium falciparum [1], greater than 30 µM with Plasmodium falciparum [2], greater than 30 µM in the assay on Plasmodium falciparum [3] and 30 µM in the assay on Plasmodium falciparum [4].
Turning to `N#Cc1nc(NCc2cccc(-c3cccnc3)c2)c2ncn(CCCO)c2n1`, the EC50 in the assay with Plasmodium falciparum [1], in the assay on Plasmodium falciparum [2], in the assay with Plasmodium falciparum [3] and with Plasmodium falciparum [4] was greater than 30 µM throughout.
In the case of `N#Cc1nc(NCc2cccc(-c3cccs3)c2)c2ncn(CCCO)c2n1`, the EC50 in the assay with Plasmodium falciparum [1], in the assay with Plasmodium falciparum [2], in the assay with Plasmodium falciparum [3] and with Plasmodium falciparum [4] was greater than 30 µM throughout.
For `N#Cc1nc(NCc2cccc(-c3cc4ccccc4n3S(=O)(=O)c3ccccc3)c2)c2ncn(CCCO)c2n1`, the EC50 with Plasmodium falciparum [1] is greater than 30 µM; with Plasmodium falciparum [2] it was greater than 30 µM; in the assay with Plasmodium falciparum [3], 30 µM; with Plasmodium falciparum [4] it was 30 µM.
`N#Cc1nc(NCc2cccc(-c3cn(S(=O)(=O)c4ccccc4)c4ccccc34)c2)c2ncn(CCCO)c2n1`: the EC50 in the assay with Plasmodium falciparum [1] was greater than 30 µM; with Plasmodium falciparum [2], greater than 30 µM; with Plasmodium falciparum [3] it was 30 µM; in the assay on Plasmodium falciparum [4], 30 µM.
Regarding `N#Cc1nc(NCc2cccc(-c3ccc4cc[nH]c4c3)c2)c2ncn(CCCO)c2n1`, the EC50 in the assay with Plasmodium falciparum [1], in the assay with Plasmodium falciparum [2], with Plasmodium falciparum [3] and in the assay on Plasmodium falciparum [4] was greater than 30 µM in each case.
